The values that follow come from patent US20240301408A1, “MICRORNA 195 COMPOSITIONS AND METHODS FOR TREATING COGNITIVE IMPAIRMENT” (UNITED STATES GOVERNMENT AS REPRESENTED BY THE DEPARTMENT …, priority 2021, published 2024).

One data set deals with synaptojanin 1 (synj1). The data set is described as follows: synj1 expression in cultured mouse neurons after AAV2 miRNA over-expression (western blot, qPCR). The format is cell-based. As to the method: Mouse Neuronal and human iPSC culture. Primary cortical neurons were cultured (Zhu L et al., Proc Natl Acad Sci USA 2015, and Zhu L et al., J Biol Chem 2013) before being fixed and stained for confocal microscopy analysis (Zeiss LSM) (Berg I et al., Nat Protoc 2010). In some conditions, bovine serum albumin (BSA) or receptor-associated protein (RAP) was included in the cultured media (N=3/group). Alternatively, cultured neurons were transfected with adeno-associated virus 2 (AAV2)-containing miR-195-5p or miR-374 or scramble controls for 5 days before subjected to analysis. The ApoE4^+/+ and ApoE3^+/+ iPSCs were differentiated into neural progenitor cells (NPCs) by dual SMAD inhibition followed by neural rosette selection and forebrain-specific patterning by 20 ng/ml FGF2 exposure (Bowles K R et al., PloS one 2019, and Tcw J et al., Stem cell reports 2017). These NPCs were purified by MACS for CD271^−/CD133^+ (Bowles K R et al., PloS one 2019) and differentiated to cortical neurons (Bardy C et al., Proc Natl Acad Sci USA 2015, and Paquet D et al., Nature 2016) and a homogeneous population of astrocytes (Tcw J et al., Stem cell reports 2017, and Shaltouki A et al., Stem Cells 2013) before subjected to viral transfection and confocal microscopy analysis. Alternatively, mouse cortical neurons derived from ApoE4^+/+ and ApoE3^+/+ KI mice with synj1^+/+ or synj1^−/− genotypes were co-cultured with ApoE4^+/+ and ApoE3^+/+ iPSC-derived pure astrocytes. In some experiments, cultured neurons were transfected with AAV2-containing miR-195-5p, scramble controls or miR195 inhibitors that specifically prevent miR-195-5p binding to its target mRNA before co-culturing with iPSC-derived astrocytes. Cultured iPSC-derived neurons and astrocytes were then incubated with lysotracker red for various time periods before fixation and double-stained for pTau and a nuclear marker DAPI (blue) for confocal microscopy analysis (Zeiss). N=4-5/condition.
Brain and neuronal sample preparation and biochemical analysis. Snap-frozen mouse hemi-brains or cultured neurons were harvested in lysis buffer (Lane R F et al., The Journal of neuroscience 2010) and processed via step-wise solubilization (Lane R F et al., The Journal of neuroscience 2010, and Kawarabayashi T et al. The Journal of neuroscience 2001) followed by SDS-PAGE to determine levels of synj1, dyn1, holoAPP, and CTFs. Levels of Aβ42, Aβ40, pTau, Tau and ApoE were determined using high-sensitive ELISA kits. Some tissue was used for miRNA and RNA extraction followed by qPCR and RNA-seq analysis. Some animals underwent perfusion followed by brain tissue section for immunohistochemical staining of amyloid plaque, synj1 and pTau.
Statistical analysis. The sample sizes of each experiment were chosen based on power calculations derived from previous similar studies which allowed the determination of group sizes needed to achieve statistically significant results. […] Levels of miR-195-5p and miR-374 were normalized to U6 and RNU6B (internal controls) while synj1 mRNA normalized to GAPDH and 18s, and then expressed as Log2fold of changes when compared to controls. Levels of synj1, dyn1, pTau, Tau, and holoAPP were normalized to β-actin levels and expressed as a percentage of the control. Absolute Aβ42, Aβ40, pTau, Tau, and ApoE concentrations were quantitatively determined by ELISA and expressed as a percentage of the control. […] Pearson correlation coefficients were calculated to determine the linear relationship between the two variables. […]

Data set [1] deals with microglia-specific gene profiles, E4FAD mouse brain. The experiment in a line: scRNA-seq of EFAD mouse brains with miR-195-5p over-expression. The class given is in vivo. Particulars: Mic.C0 and Mic.C2 microglial sub-clusters; N=4 pooled mice/condition. As to the method: Changes in microglia-specific gene profiles with miR-195-5p over-expression in E4FAD mouse brain. scRNA-seq analysis of EFAD mouse brains with miR-195-5p over-expression was performed (FIG. 15; N=4 pooled mice/condition). Single cell suspensions were prepared and processed with the 10× Genomics Chromium platform. After quality control (QC), the gene-level UMIs data were normalized by a regularized negative binomial regression analysis (Hafemeister, C. & Satija, R. Genome Biology 20, 296, (2019)). Genes were selected that were detected in more than one cell and cells with sequencing reads in 200˜4,000 genes and mitochondrial read rate of less than 50%. […] The significant principal components as determined by a JackStraw permutation procedure were selected for cell clustering using Seurat's graph-based clustering approach (Butler, A., et al. Nature Biotechnology 36, 411, (2018)). […] After removing predicted doublets from the clusters, the cluster marker genes were observed and the expression patterns of known gene markers were analyzed to annotate clusters into major cell-types: excitatory neurons (Ex; marked by NRGN), inhibitory neurons (In; GAD1), astrocytes (Ast; AQP4, GFAP), oligodendrocytes (Oli; PLP1, MBP), microglia (Mic; CSF1R, CD74), oligodendrocyte progenitor cells (Opc; VCAN), and endothelial cells (End; FLT1). […]

[2] abbreviates: ApoE3+/+ neurons with miR-195 over-expression.
Where [3] appears, read: ApoE4+/+ neurons with miR-195 over-expression.

With “UAGCAGCACAGAAAUAUUGGC (chemistry not given here) [miR-195-5p, over-expressed via AAV2-containing miR-195-5p from ABM Inc]”, the “synj1 mRNA levels” value is −1.084±0.035 log2FC with synaptojanin 1 (synj1) (setting [2]) and −7.751±0.043 log2FC with synaptojanin 1 (synj1) (setting [3]). In addition, the synj1 protein levels is recorded as 70.9±21.2 % of controls in the data set with synaptojanin 1 (synj1) (setting [2]); 48.0±9.84 % of controls in the data set with synaptojanin 1 (synj1) (setting [3]); 62.87±4.48 % of controls in the data set with synaptojanin 1 (synj1) (ApoE-/- hippocampal neurons in presence of ApoE4-CM, miRNA over-expression, N=4/group). In data set [1], the “top GO pathways enriched with microglial sub-cluster DEGs” value is “down-regulates innate immune system and effector responses”.
